Measured values from the supplement of paper PMC10307832.

Assays:
Assay in all cases: relative viability (nuclei count vs DMSO), 5 days (fraction); higher = more cells survive
NCI-H661 = settings: first compound 8 µM
Method in brief: (§1)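 Lung cancer cell lines, seeded in 1536-well plates, were treated the following day by pin tool with a single drug or with five library-drug doses (not always all listed) in √10 steps on top of a fixed anchor-drug dose. Cells were fixed and nuclei stained in one step after 5 days, and nuclei were counted. Relative viability is the nuclei count for treated wells divided by that for vehicle wells, reported as medians of duplicate plates.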

NCI-H2085 = tested on: NCI-H2085
Method in brief: as §1

SK-MES-1 = tested on: SK-MES-1
Method in brief: as §1

NCI-H23 = tested on: NCI-H23
Method in brief: as §1

NCI-H1395 = tested on: NCI-H1395
Method in brief: as §1

NCI-H520 = tested on: NCI-H520
Method in brief: as §1

BEN = tested on: BEN
Method in brief: as §1

A-427 = tested on: A-427
Method in brief: as §1

PC-3 [JPC-3] = tested on: PC-3 [JPC-3]
Method in brief: as §1

NCI-H1651 = tested on: NCI-H1651
Method in brief: as §1

NCI-H1650 = tested on: NCI-H1650
Method in brief: as §1

NCI-H838 = tested on: NCI-H838
Method in brief: as §1

H3255 = tested on: H3255
Method in brief: as §1

Nc1cccc2c1CN(C1CCC(=O)NC1=O)C2=O (configuration not stated) [Lenalidomide] + Nc1nc2[nH]cc(CCc3ccc(C(=O)N[C@@H](CCC(=O)O)C(=O)O)cc3)c2c(=O)[nH]1 [Pemetrexed] (partner 0.2 µM)
relative viability (NCI-H661): 0.932
relative viability (NCI-H2085; first compound 0.253 µM): 0.884
relative viability (NCI-H2085; first compound 0.8 µM): 0.96
relative viability (NCI-H2085; first compound 2.53 µM): 0.924
relative viability (NCI-H2085; first compound 8 µM): 0.873
relative viability (SK-MES-1; first compound 0.253 µM): 0.91
relative viability (SK-MES-1; first compound 0.8 µM): 0.823
relative viability (SK-MES-1; first compound 2.53 µM): 0.934
relative viability (SK-MES-1; first compound 8 µM): 0.888
relative viability (NCI-H23; first compound 0.253 µM): 0.589
relative viability (NCI-H23; first compound 2.53 µM): 0.861
relative viability (NCI-H23; first compound 8 µM): 0.694
relative viability (NCI-H1395; first compound 0.253 µM): 0.875
relative viability (NCI-H1395; first compound 2.53 µM): 0.948
relative viability (NCI-H1395; first compound 8 µM): 0.874
relative viability (NCI-H520; first compound 0.253 µM): 0.722
relative viability (NCI-H520; first compound 0.8 µM): 0.607
relative viability (NCI-H520; first compound 2.53 µM): 0.79
relative viability (NCI-H520; first compound 8 µM): 0.689
relative viability (BEN; first compound 0.253 µM): 0.787
relative viability (BEN; first compound 0.8 µM): 0.608
relative viability (BEN; first compound 2.53 µM): 0.737
relative viability (BEN; first compound 8 µM): 0.673
relative viability (A-427; first compound 0.253 µM): 0.989
relative viability (A-427; first compound 0.8 µM): 0.931
relative viability (A-427; first compound 2.53 µM): 1.05
relative viability (A-427; first compound 8 µM): 0.993
relative viability (PC-3 [JPC-3]; first compound 0.253 µM): 1.2
relative viability (PC-3 [JPC-3]; first compound 0.8 µM): 0.755
relative viability (PC-3 [JPC-3]; first compound 2.53 µM): 1.21
relative viability (PC-3 [JPC-3]; first compound 8 µM): 1.08
relative viability (NCI-H1651; first compound 0.253 µM): 0.608
relative viability (NCI-H1651; first compound 0.8 µM): 0.497
relative viability (NCI-H1651; first compound 2.53 µM): 0.586
relative viability (NCI-H1651; first compound 8 µM): 0.582
relative viability (NCI-H1650; first compound 0.253 µM): 0.357
relative viability (NCI-H1650; first compound 0.8 µM): 0.357
relative viability (NCI-H1650; first compound 2.53 µM): 0.366
relative viability (NCI-H1650; first compound 8 µM): 0.53
relative viability (NCI-H838; first compound 0.253 µM): 0.247
relative viability (NCI-H838; first compound 0.8 µM): 0.265
relative viability (NCI-H838; first compound 2.53 µM): 0.241
relative viability (NCI-H838; first compound 8 µM): 0.265
relative viability (H3255; first compound 0.253 µM): 0.65
relative viability (H3255; first compound 0.8 µM): 0.565
relative viability (H3255; first compound 2.53 µM): 0.585
relative viability (H3255; first compound 8 µM): 0.605
